Experimental data from ChEMBL document CHEMBL5120900, “Structure-Based Discovery of a Series of NSD2-PWWP1 Inhibitors” (J Med Chem, 2022).
Calls of active or inactive are those of the source. The rule behind the calls is not given here.

Experiments:
[1] = molecular target: T1, Histone-lysine N-methyltransferase NSD2 (Homo sapiens) (UniProt O96028); test: Inhibition of NSD2 in human RS4-11 cells assessed as decrease in RRAS2 gene expression at 10 uM incubated for 72 hrs by RT-PCR analysis; assay type: cell-based
T1 sequence (whole entry): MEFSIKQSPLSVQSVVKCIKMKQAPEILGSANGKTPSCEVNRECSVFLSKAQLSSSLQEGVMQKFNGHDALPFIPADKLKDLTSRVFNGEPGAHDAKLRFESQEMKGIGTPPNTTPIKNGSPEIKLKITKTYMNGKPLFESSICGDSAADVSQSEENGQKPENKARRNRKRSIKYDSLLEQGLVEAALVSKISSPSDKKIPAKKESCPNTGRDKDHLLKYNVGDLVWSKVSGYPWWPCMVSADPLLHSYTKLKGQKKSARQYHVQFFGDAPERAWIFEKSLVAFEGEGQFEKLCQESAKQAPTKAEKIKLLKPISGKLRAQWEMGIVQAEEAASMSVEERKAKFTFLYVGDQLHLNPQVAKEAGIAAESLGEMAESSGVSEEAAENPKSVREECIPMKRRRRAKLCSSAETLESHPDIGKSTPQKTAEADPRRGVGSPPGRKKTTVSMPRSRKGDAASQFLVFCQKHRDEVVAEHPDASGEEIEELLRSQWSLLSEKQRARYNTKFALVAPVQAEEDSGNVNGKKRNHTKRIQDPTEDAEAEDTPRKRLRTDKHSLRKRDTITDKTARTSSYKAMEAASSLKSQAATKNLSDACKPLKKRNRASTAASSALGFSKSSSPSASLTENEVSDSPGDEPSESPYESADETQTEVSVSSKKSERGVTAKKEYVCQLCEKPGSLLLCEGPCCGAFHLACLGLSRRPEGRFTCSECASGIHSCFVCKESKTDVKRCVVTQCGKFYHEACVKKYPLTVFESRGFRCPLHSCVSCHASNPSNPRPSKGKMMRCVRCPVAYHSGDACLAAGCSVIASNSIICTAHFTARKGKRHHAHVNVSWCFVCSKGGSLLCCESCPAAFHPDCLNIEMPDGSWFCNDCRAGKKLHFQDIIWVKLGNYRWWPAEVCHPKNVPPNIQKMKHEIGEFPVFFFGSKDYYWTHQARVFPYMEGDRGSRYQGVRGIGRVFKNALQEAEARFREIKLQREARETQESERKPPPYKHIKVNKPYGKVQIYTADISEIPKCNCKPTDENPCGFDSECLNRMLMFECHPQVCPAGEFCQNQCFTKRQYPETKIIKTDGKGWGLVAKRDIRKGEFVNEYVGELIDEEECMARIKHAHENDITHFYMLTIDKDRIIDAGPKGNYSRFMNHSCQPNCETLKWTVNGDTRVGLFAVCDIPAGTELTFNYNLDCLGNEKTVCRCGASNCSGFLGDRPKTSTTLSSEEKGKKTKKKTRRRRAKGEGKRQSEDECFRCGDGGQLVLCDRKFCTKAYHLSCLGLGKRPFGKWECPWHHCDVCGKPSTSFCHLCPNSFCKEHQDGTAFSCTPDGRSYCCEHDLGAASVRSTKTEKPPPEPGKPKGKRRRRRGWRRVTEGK

KMS-11 [2] = test: Cell cycle arrest in human KMS-11 cells assessed as increase in accumulation of G0/G1 phase at 5 to 10 uM measured after 24 hrs by PI staining based flow cytometric analysis; assay type: functional; settings: dose 5-10 µM
KMS-11 [3] = test: Induction of apoptosis in human KMS-11 cells assessed as early apoptotic cells at 5 uM measured after 72 hrs by Annexin V FITC/PI staining based flow cytometry analysis (reference value: 16.5 %); assay type: functional
MV4-11 [4] = test: Antiproliferative activity against human MV4-11 cells assessed as inhibition of cell proliferation measured after 6 days by CCK8 assay; assay type: functional, cell-based; settings: MV4-11, 144 h
MV4-11 [5] = test: Cell cycle arrest in human MV4-11 cells assessed as increase in accumulation of G0/G1 phase at 5 to 10 uM measured after 24 hrs by PI staining based flow cytometric analysis; assay type: functional; settings: dose 5-10 µM
KMS-11 [6] = test: Induction of apoptosis in human KMS-11 cells assessed as late apoptotic cells at 5 uM measured after 72 hrs by Annexin V FITC/PI staining based flow cytometry analysis (reference value: 13.3 %); assay type: functional
MV4-11 [7] = test: Induction of apoptosis in human MV4-11 cells assessed as necrotic cells at 10 uM measured after 72 hrs by Annexin V FITC/PI staining based flow cytometry analysis (reference value: […]); assay type: functional
[8] = molecular target: T1, Histone-lysine N-methyltransferase NSD2 (Homo sapiens); test: Inhibition of NSD2 in human RS4-11 cells assessed as decrease in PAK1 gene expression at 10 uM incubated for 72 hrs by RT-PCR analysis; assay type: cell-based
MV4-11 [9] = test: Induction of apoptosis in human MV4-11 cells assessed as viable cells at 5 uM measured after 72 hrs by Annexin V FITC/PI staining based flow cytometry analysis (reference value: 91.7%); assay type: functional; settings: read-out: Activity
MV4-11 [10] = test: Induction of apoptosis in human MV4-11 cells assessed as late apoptotic cells at 10 uM measured after 72 hrs by Annexin V FITC/PI staining based flow cytometry analysis (reference value: 3.02%); assay type: functional
MV4-11 [11] = test: Induction of apoptosis in human MV4-11 cells assessed as early apoptotic cells at 5 uM measured after 72 hrs by Annexin V FITC/PI staining based flow cytometry analysis (reference value: 4.58 %); assay type: functional
KMS-11 [12] = test: Induction of apoptosis in human KMS-11 cells assessed as necrotic cells at 10 uM measured after 72 hrs by Annexin V FITC/PI staining based flow cytometry analysis (reference value: 0.88%); assay type: functional
MV4-11 [13] = test: Induction of apoptosis in human MV4-11 cells assessed as viable cells at 10 uM measured after 72 hrs by Annexin V FITC/PI staining based flow cytometry analysis (reference value: 91.7%); assay type: functional; settings: read-out: Activity
[14] = molecular target: T1, Histone-lysine N-methyltransferase NSD2 (Homo sapiens); test: Inhibition of NSD2 in human KMS-11 cells assessed as decrease in TEMEL2 gene expression at 10 uM incubated for 72 hrs by RT-PCR analysis; assay type: cell-based
KMS-11 [15] = test: Antiproliferative activity against human KMS-11 cells assessed as inhibition of cell proliferation measured after 6 days by CCK8 assay; assay type: functional, cell-based; settings: KMS-11, 144 h
KMS-11 [16] = test: Induction of apoptosis in human KMS-11 cells assessed as viable cells at 10 uM measured after 72 hrs by Annexin V FITC/PI staining based flow cytometry analysis (reference value: 69.4%); assay type: functional; settings: read-out: Activity
MV4-11 [17] = test: Induction of apoptosis in human MV4-11 cells assessed as early apoptotic cells at 10 uM measured after 72 hrs by Annexin V FITC/PI staining based flow cytometry analysis (reference value: 4.58 %); assay type: functional
[18] = molecular target: T1, Histone-lysine N-methyltransferase NSD2 (Homo sapiens); test: Inhibition of NSD2 in human KMS-11 cells assessed as decrease in NCAM1 gene expression at 10 uM incubated for 72 hrs by RT-PCR analysis; assay type: cell-based
[19] = molecular target: T1, Histone-lysine N-methyltransferase NSD2 (Homo sapiens); test: Inhibition of NSD2 in human RS4-11 cells assessed as decrease in TGFA gene expression at 10 uM incubated for 72 hrs by RT-PCR analysis; assay type: cell-based
KMS-11 [20] = test: Induction of apoptosis in human KMS-11 cells assessed as late apoptotic cells at 10 uM measured after 72 hrs by Annexin V FITC/PI staining based flow cytometry analysis (reference value: 13.3 %); assay type: functional

- inhibition [1]: Active
- IC50 (MV4-11 [4]): 2230 nM
- inhibition [8]: Active
- inhibition [14]: Active
- inhibition [18]: Active
- inhibition [19]: Active
SMILES: Cc1cc(CN2CCC(N)CC2)cc(C)c1-c1ncn(C)c1-c1ccc(C#N)c2ccccc12
- Activity (KMS-11 [2]): Active
- Activity (KMS-11 [3]): 21.1%
- Activity (MV4-11 [5]): Active
- Activity (KMS-11 [6]): 16.5%
- Activity (MV4-11 [7]): 1.56%
- viability at 5 µM (MV4-11 [9]): 91%
- Activity (MV4-11 [10]): 19.8%
- Activity (MV4-11 [11]): 6.26%
- Activity (KMS-11 [12]): 1.86%
- viability at 10 µM (MV4-11 [13]): 37.3%
- IC50 (KMS-11 [15]): 8.43 µM
- viability at 10 µM (KMS-11 [16]): 36.8%
- Activity (MV4-11 [17]): 41.3%
- Activity (KMS-11 [20]): 32.7%
